Source: US20210189342A1, “COMPOSITIONS AND METHODS FOR MODULATING MONOCYTE AND MACROPHAGE INFLAMMATORY PHENOTYPES AND IMMUNOTHERAPY USES THEREOF” (Verseau Therapeutics, Inc., priority 2018, published 2021)
pIC50: −log10 of the molar value.

Each substance was assayed on AIF1 (assay: siRNA dose response, AIF1 mRNA knockdown, bDNA Assay). Conditions: THP-1, 24 hr.
Format: cell-based, human
Protocol: (§1) Dose response curves for siRNAs were generated in vitro using a variety of cell lines according to Table 4.
(§2) Briefly, cells were seeded in 96-well plates and reverse transfected with siRNA, Lipofectamine® 2000 (0.5 uL/well; ThermoFisher), and, in some cases, a reporter plasmid (50 ng/well). The reporter plasmid (psiCHECK™-2, Promega) encoded both firefly luciferase and the gene of interest fused to renilla luciferase; silencing of the gene of interest results in proportional silencing of renilla luciferase but leaves firefly luciferase unaffected as an internal control.
(§3) After 24 hr incubation at 37° C., mRNA knockdown was measured using an endpoint assay. For targets without a reporter plasmid, a branched DNA (bDNA) assay was performed according to the manufacturer's instructions (QuantiGene® Singleplex Gene Expression Assay, ThermoFisher) to measure both the target gene and GAPDH (housekeeping gene) mRNA. Data are plotted as siRNA concentration (nM) vs. remaining mRNA (ratio of target gene to GAPDH, normalized to mock siRNA-transfected cells). For targets with a reporter plasmid, a Dual-Glo® Luciferase Assay was performed according to the manufacturer's instructions (Promega) to measure firefly and renilla luciferase expression. Data are plotted as siRNA concentration (nM) vs. remaining mRNA (ratio of renilla to firefly luminescence, normalized to mock siRNA-transfected cells).
(§4) For all dose response curves, a 4-parameter logistic model was applied to determine the IC50 of each siRNA sequence (Table 5 and FIG. 2). Data shown in Table 5 and FIG. 2 represent the mean of quadruplicates, +/−standard deviation.
“XD-09661: siRNA targeting AIF1 (sense 5'-uaAuGGAAAuGGcgAuAuudTsdT-3'; antisense 5'-AAuAUCGCcAUUUCcAUuAdTsdT-3'; as printed in the source, key not given here)” gave a pIC50 of 10.35. Work on “XD-09662: siRNA targeting AIF1 (sense 5'-uaucAuGucccuGaAAcGAdTsdT-3'; antisense 5'-UCGUUUcAGGGAcAUGAuAdTsdT-3'; as printed in the source, key not given here)” yielded a pIC50 of 9.92. For “XD-09663: siRNA targeting AIF1 (sense 5'-gaAAcGAAuGcuGgAGAAAdTsdT-3'; antisense 5'-UUUCUCcAGcAUUCGUUUCdTsdT-3'; as printed in the source, key not given here)”, the pIC50 was 9.58. For “XD-09664: siRNA targeting AIF1 (sense 5'-agAcucAccuAGAgcuAAAdTsdT-3'; antisense 5'-UUuAGCUCuAGGUGAGUCUdTsdT-3'; as printed in the source, key not given here)”, the pIC50 was 9.36. “XD-09665: siRNA targeting AIF1 (sense 5'-cucAccuAGAGcuaAAGAAdTsdT-3'; antisense 5'-UUCUUuAGCUCuAGGUGAGdTsdT-3'; as printed in the source, key not given here)” showed a pIC50 of 9.46. With “XD-09666: siRNA targeting AIF1 (sense 5'-ucAccuAGAGcuAaAGAAAdTsdT-3'; antisense 5'-UUUCUUuAGCUCuAGGUGAdTsdT-3'; as printed in the source, key not given here)” the pIC50 was 9.98. “XD-09667: siRNA targeting AIF1 (sense 5'-accuAGAGcuAAAgAAAuudTsdT-3'; antisense 5'-AAUUUCUUuAGCUCuAGGUdTsdT-3'; as printed in the source, key not given here)” showed a pIC50 of 10.38. “XD-09668: siRNA targeting AIF1 (sense 5'-ccuAGAGcuAAAGaAAuuAdTsdT-3'; antisense 5'-uAAUUUCUUuAGCUCuAGGdTsdT-3'; as printed in the source, key not given here)” showed a pIC50 of 9.57. For “XD-09669: siRNA targeting AIF1 (sense 5'-ccGGGGAGAcGuucAGcuAdTsdT-3'; antisense 5'-uAGCUGAACGUCUCCCCGGdTsdT-3'; as printed in the source, key not given here)”, the pIC50 was 8.91.

Each substance was assayed on CD37 (assay: siRNA dose response, CD37 mRNA knockdown, bDNA Assay). Conditions: THP-1, 24 hr.
Format: cell-based, human
Protocol: as §1, §2, §3, §4
For “XD-09770: siRNA targeting CD37 (sense 5'-gcuuGcGGGAcGucGuAGAdTsdT-3'; antisense 5'-UCuACGACGUCCCGcAAGCdTsdT-3'; RNA with 2'-O-methyl and phosphorothioate modifications, case key not given here, as printed in the source, key not given here)”, the pIC50 was 9.26. Work on “XD-09771: siRNA targeting CD37 (sense 5'-gacGucGuAGAGAaAAccAdTsdT-3'; antisense 5'-UGGUUUUCUCuACGACGUCdTsdT-3'; RNA with 2'-O-methyl and phosphorothioate modifications, case key not given here, as printed in the source, key not given here)” yielded a pIC50 of 9.41.

These substances were tested on CD74 (assay: siRNA dose response, CD74 mRNA knockdown, bDNA Assay). Conditions: THP-1, 24 hr.
Format: cell-based, human
Protocol: as §1, §2, §3, §4
“XD-09227: siRNA targeting CD74 (sense 5'-ggAAcuGGAGGAcccGucudTsdT-3'; antisense 5'-AGACGGGUCCUCcAGUUCCdTsdT-3'; RNA with 2'-O-methyl and phosphorothioate modifications, case key not given here, as printed in the source, key not given here)” was tested, and the pIC50 was 9.23. Work on “XD-09230: siRNA targeting CD74 (sense 5'-gacAAAccAAGucgGaacAdTsdT-3'; antisense 5'-UGUUCCGACUUGGUUUGUCdTsdT-3'; as printed in the source, key not given here)” yielded a pIC50 of 9.71. Work on “XD-09231: siRNA targeting CD74 (sense 5'-aaAccAAGucGGAacAGcAdTsdT-3'; antisense 5'-UGCUGUUCCGACUUGGUUUdTsdT-3'; RNA with 2'-O-methyl and phosphorothioate modifications, case key not given here, as printed in the source, key not given here)” yielded a pIC50 of 9.59. Work on “XD-09232: siRNA targeting CD74 (sense 5'-agcuAGAcAGAuccccGuudTsdT-3'; antisense 5'-AACGGGGAUCUGUCuAGCUdTsdT-3'; RNA with 2'-O-methyl and phosphorothioate modifications, case key not given here, as printed in the source, key not given here)” yielded a pIC50 of 9.13. Work on “XD-09235: siRNA targeting CD74 (sense 5'-ccAAuGuuuuccAcccAuAdTsdT-3'; antisense 5'-uAUGGGUGGAAAAcAUUGGdTsdT-3'; as printed in the source, key not given here)” yielded a pIC50 of 9.61. Work on “XD-09237: siRNA targeting CD74 (sense 5'-ccAuAAuccuuucuGccGAdTsdT-3'; antisense 5'-UCGGcAGAAAGGAUuAUGGdTsdT-3'; as printed in the source, key not given here)” yielded a pIC50 of 8.73. With “XD-09239: siRNA targeting CD74 (sense 5'-ggccAuGGuucAcauuAGAdTsdT-3'; antisense 5'-UCuAAUGUGAACcAUGGCCdTsdT-3'; as printed in the source, key not given here)” the pIC50 was 10.15.

These substances were tested on VSIG4 (assay: siRNA dose response, VSIG4 mRNA knockdown, Dual-Glo Luciferase Assay). Conditions: Hepa1-6 + reporter plasmid, 24 hr.
Format: cell-based, human
Protocol: as §1, §2, §3, §4
Substance “XD-09170: siRNA targeting VSIG4 (sense 5'-aaGGcuAcAcccAaGucuudTsdT-3'; antisense 5'-AAGACUUGGGUGuAGCCUUdTsdT-3'; RNA with 2'-O-methyl and phosphorothioate modifications, case key not given here, as printed in the source, key not given here)” has a pIC50 of 10.62. “XD-09171: siRNA targeting VSIG4 (sense 5'-cuuucuAcGuGAcucuucudTsdT-3'; antisense 5'-AGAAGAGUcACGuAGAAAGdTsdT-3'; RNA with 2'-O-methyl and phosphorothioate modifications, case key not given here, as printed in the source, key not given here)” showed a pIC50 of 10.64. With “XD-09172: siRNA targeting VSIG4 (sense 5'-gcAAccAAGucGugAGAGAdTsdT-3'; antisense 5'-UCUCUcACGACUUGGUUGCdTsdT-3'; RNA with 2'-O-methyl and phosphorothioate modifications, case key not given here, as printed in the source, key not given here)” the pIC50 was > 11.30. In the case of “XD-09173: siRNA targeting VSIG4 (sense 5'-cguGAGAGAuAAGauuAcudTsdT-3'; antisense 5'-AGuAAUCUuAUCUCUcACGdTsdT-3'; RNA with 2'-O-methyl and phosphorothioate modifications, case key not given here, as printed in the source, key not given here)”, the pIC50 was > 11.30. Work on “XD-09174: siRNA targeting VSIG4 (sense 5'-aacAAGAGcAuGucuAcGAdTsdT-3'; antisense 5'-UCGuAGAcAUGCUCUUGUUdTsdT-3'; RNA with 2'-O-methyl and phosphorothioate modifications, case key not given here, as printed in the source, key not given here)” yielded a pIC50 of 10.44. Work on “XD-09176: siRNA targeting VSIG4 (sense 5'-cacuAGGAcuuGGucAucAdTsdT-3'; antisense 5'-AGAUGACcAAGUCCuAGUGdTsdT-3'; RNA with 2'-O-methyl and phosphorothioate modifications, case key not given here, as printed in the source, key not given here)” yielded a pIC50 of 10.51. In the case of “XD-09177: siRNA targeting VSIG4 (sense 5'-acuAGGAcuuGGucAucAudTsdT-3'; antisense 5'-AUGAUGACcAAGUCCuAGUdTsdT-3'; RNA with 2'-O-methyl and phosphorothioate modifications, case key not given here, as printed in the source, key not given here)”, the pIC50 was 11.15. Work on “XD-09178: siRNA targeting VSIG4 (sense 5'-gucAucAuGccuAcAGAcAdTsdT-3'; antisense 5'-UGUCUGuAGGcAUGAUGACdTsdT-3'; RNA with 2'-O-methyl and phosphorothioate modifications, case key not given here, as printed in the source, key not given here)” yielded a pIC50 of 10.22. For “XD-09179: siRNA targeting VSIG4 (sense 5'-ggccAGAcAGcuuuuAAuudTsdT-3'; antisense 5'-AAUuAAAAGCUGUCUGGCCdTsdT-3'; RNA with 2'-O-methyl and phosphorothioate modifications, case key not given here, as printed in the source, key not given here)”, the pIC50 was 11.22.
